According to patent US10294229B2, “Heteroaryl substituted aminopyridine compounds” (BRISTOL-MYERS SQUIBB COMPANY, priority 2015, dated 2019):
pEC50, pIC50: −log10 of the molar value. Where a name gives a salt, the structure may show the parent alone.

Legend:
IRAK4 = IRAK4 (Homo sapiens (Human), UniProt Q9NWZ3); experiment: IRAK4 Inhibition Assay; format: biochemical; conditions: ATP 500 μM; IRAK4 0.6 nM
How it was run: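 Enzyme 0.6 nM, ATP 500 μM, FL-peptide 1.5 μM, DMSO 1.6%; HEPES pH 7.2/MgCl2/Brij 35/DTT buffer. RT, 60 min, EDTA stop. Mobility-shift product/substrate ratio; % inhib vs no-enzyme and vehicle controls.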

[1] = Caco-2 Permeability Assay; format: in vitro ADME; conditions: human, Caco-2, test compound 3 μM
How it was run: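 Bidirectional permeability measured over 2 h at 37° C, compound dosed at 3 μM in the donor compartment (apical for absorptive, basolateral for secretive) with plain buffer as receiver.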

[2] = test system: Human whole blood stimulated with a TLR2 agonist (lipoteichoic acid), IL-6 levels; experiment: IRAK4 Whole Blood Assay; format: cell-based; conditions: lipoteichoic acid 10 μg/mL
How it was run: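 ACD-A-anticoagulated human whole blood was preincubated with compounds for 60 min at 37 °C under 5% CO2. It was then stimulated with 10 μg/mL lipoteichoic acid (final) in RPMI for 5 h. IL-6 in plasma supernatants was measured by flow cytometry bead assay.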

Chain of IRAK4 (Q9NWZ3 whole entry, species assumed): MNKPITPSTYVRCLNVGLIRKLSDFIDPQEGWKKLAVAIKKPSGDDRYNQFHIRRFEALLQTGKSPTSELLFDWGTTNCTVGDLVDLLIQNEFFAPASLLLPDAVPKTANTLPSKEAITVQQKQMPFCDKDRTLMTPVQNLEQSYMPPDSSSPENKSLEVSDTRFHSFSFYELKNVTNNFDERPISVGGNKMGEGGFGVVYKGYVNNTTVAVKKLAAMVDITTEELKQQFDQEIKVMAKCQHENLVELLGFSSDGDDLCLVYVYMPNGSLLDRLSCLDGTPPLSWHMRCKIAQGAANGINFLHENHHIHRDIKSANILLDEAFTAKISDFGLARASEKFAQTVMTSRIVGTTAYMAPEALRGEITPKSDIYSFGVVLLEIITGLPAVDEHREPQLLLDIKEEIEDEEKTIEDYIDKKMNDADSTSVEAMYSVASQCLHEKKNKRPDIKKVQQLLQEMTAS

| Structure (SMILES) | pIC50 (IRAK4) | Papp at 2 h, 3 µM [1] [×10⁻⁶ cm/s] | pEC50 ([2]; Homo sapiens) | pEC50 [2] |
| --- | --- | --- | --- | --- |
| CC(=O)N1CC(n2cc(-c3cnc(-n4ccc5cc(C#N)cnc54)cc3NC(C)C)nn2)C1 [Example 162, 1-(5-(1-(1-acetylazetidin-3-yl)-1H-1,2,3-triazol-4-yl)-4-(isopropylamino)pyridin-2-yl)-1H-pyrrolo[2,3-b]pyridine-5-carbonitrile, TFA] | 8.40 | 17.1 | 6.36 | – |
| CC(C)Nc1cc(-n2ncc3cc(C#N)cnc32)ncc1-n1cc(CCC(C)(C)OC(=O)CN(C)C)nn1 [Example 384, 4-(1-(6-(5-cyano-1H-pyrazolo[3,4-b]pyridin-1-yl)-4-(isopropylamino)pyridin-3-yl)-1H-1,2,3-triazol-4-yl)-2-methylbutan-2-yl dimethylglycinate] | 8.70 | 13.1 | 6.60 | – |
| CC(C)Nc1cc(-n2ncc3cc(C#N)cnc32)ncc1-n1cc(C2CCOCC2)nn1 [Example 355, 1-(4-(isopropylamino)-5-(4-(tetrahydro-2H-pyran-4-yl)-1H-1,2,3-triazol-1-yl)pyridin-2-yl)-1H-pyrazolo[3,4-b]pyridine-5-carbonitrile] | 8.15 | 48.7 | 6.62 | – |
| CC(C)Nc1cc(-n2ncc3cc(C#N)cnc32)ncc1-c1cn([C@H]2CCCC[C@H]2O)nn1 [Example 216, 1-(5-(1-((1S,2R)-2-hydroxycyclohexyl)-1H-1,2,3-triazol-4-yl)-4-(isopropylamino)pyridin-2-yl)-1H-pyrazolo[3,4-b]pyridine-5-carbonitrile] | 8.70 | 7.3 | 5.78 | – |
| CC(=O)N1CC[C@@H](n2cc(-c3cnc(-n4ncc5cc(C#N)cnc54)cc3NC(C)C)nn2)[C@H](O)C1 (single isomer, unassigned) [Example 197, 1-(5-(1-((trans)-1-acetyl-3-hydroxypiperidin-4-yl)-1H-1,2,3-triazol-4-yl)-4-(isopropylamino)pyridin-2-yl)-1H-pyrazolo[3,4-b]pyridine-5-carbonitrile] | 8.52 | < 1.5 | 6.77 | – |
| CC(C)Nc1cc(-n2ncc3cc(C#N)cnc32)ncc1-c1cn(C2CN(C(C)C)C2)nn1 [Example 150, 1-(4-(isopropylamino)-5-(1-(1-isopropylazetidin-3-yl)-1H-1,2,3-triazol-4-yl)pyridin-2-yl)-1H-pyrazolo[3,4-b]pyridine-5-carbonitrile] | 8.70 | 9.1 | 6.35 | – |
| CC(=O)N1CC[C@H](n2cc(-c3cnc(-n4ncc5cc(C#N)cnc54)cc3NC(C)C)nn2)[C@H](O)C1 [Example 178, 1-(5-(1-((3R,4S)-1-acetyl-3-hydroxypiperidin-4-yl)-1H-1,2,3-triazol-4-yl)-4-(isopropylamino)pyridin-2-yl)-1H-pyrazolo[3,4-b]pyridine-5-carbonitrile] | 8.22 | < 1.5 | 6.28 | – |
| CC(F)Cc1cn(-c2cnc(-n3ncc4cc(C#N)cnc43)cc2NC2CC2)nn1 (stereo not drawn) [Example 354, 1-(4-(cyclopropylamino)-5-(4-(2-fluoropropyl)-1H-1,2,3-triazol-1-yl)pyridin-2-yl)-1H-pyrazolo[3,4-b]pyridine-5-carbonitrile] | 7.85 | 36 | – | 6.82 |
| CC(C)CCn1cc(-c2cnc(-n3ncc4cc(C#N)cnc43)cc2NC(C)C)nn1 [Example 10, 1-(5-(1-isopentyl-1H-1,2,3-triazol-4-yl)-4-(isopropylamino)pyridin-2-yl)-1H-pyrazolo[3,4-b]pyridine-5-carbonitrile, TFA] | 8.52 | 5.5 | 6.40 | – |
| CC(C)Nc1cc(-n2ccc3cncnc32)ncc1-c1cn(CCN2CCOCC2)nn1 [Example 3, N-isopropyl-5-(1-(2-morpholinoethyl)-1H-1,2,3-triazol-4-yl)-2-(7H-pyrrolo[2,3-d]pyrimidin-7-yl)pyridin-4-amine] | 8.70 | 33 | 6.25 | – |
| CC(C)Nc1cc(-n2ncc3cc(C#N)cnc32)ncc1-n1cc(C2CCN(S(C)(=O)=O)CC2)nn1 [Example 361, 1-(4-(isopropylamino)-5-(4-(1-(methylsulfonyl)piperidin-4-yl)-1H-1,2,3-triazol-1-yl)pyridin-2-yl)-1H-pyrazolo[3,4-b]pyridine-5-carbonitrile] | 8.15 | 5.6 | 6.44 | – |
| CC(=O)N1CC[C@H](c2cc(-c3cnc(-n4ncc5cc(C#N)cnc54)cc3NC(C)C)on2)C1 [Example 405, (S)-1-(5-(3-(1-acetylpyrrolidin-3-yl)isoxazol-5-yl)-4-(isopropylamino)pyridin-2-yl)-1H-pyrazolo[3,4-b]pyridine-5-carbonitrile] | 8.40 | 12.5 | 6.59 | – |
| CC(C)Nc1cc(-n2ncc3cc(C#N)cnc32)ncc1-c1cn(CC2CCC2)nn1 [Example 117, 1-(5-(1-(cyclobutylmethyl)-1H-1,2,3-triazol-4-yl)-4-(isopropylamino)pyridin-2-yl)-1H-pyrazolo[3,4-b]pyridine-5-carbonitrile] | 8.40 | 10.1 | 5.92 | – |
| CC(C)Nc1cc(-n2ncc3cc(C#N)cnc32)ncc1-c1cn(CCN2CCOCC2)nn1 [Example 12, 1-(4-(isopropylamino)-5-(1-(2-morpholinoethyl)-1H-1,2,3-triazol-4-yl)pyridin-2-yl)-1H-pyrazolo[3,4-b]pyridine-5-carbonitrile] | 8.40 | 23.4 | 6.51 | – |
| CC(C)Nc1cc(-n2ccc3cncnc32)ncc1-c1cn([C@@H]2CCNC[C@@H]2O)nn1 [Example 7, (3S,4R)-4-(4-(4-(isopropylamino)-6-(7H-pyrrolo[2,3-d]pyrimidin-7-yl)pyridin-3-yl)-1H-1,2,3-triazol-1-yl)piperidin-3-ol] | 8.15 | 3.9 | 5.39 | – |
| CC(C)Nc1cc(-n2ncc3cc(C#N)cnc32)ncc1-c1cn(CCC(C)(C)O)nn1 [Example 128, 1-(5-(1-(3-hydroxy-3-methylbutyl)-1H-1,2,3-triazol-4-yl)-4-(isopropylamino)pyridin-2-yl)-1H-pyrazolo[3,4-b]pyridine-5-carbonitrile] | 9.00 | 5 | 6.47 | – |
| CCCc1cn(-c2cnc(-n3ncc4cncnc43)cc2Nc2cnn(CC(F)F)c2)nn1 [Example 270, N-(1-(2,2-difluoroethyl)-1H-pyrazol-4-yl)-5-(4-propyl-1H-1,2,3-triazol-1-yl)-2-(1H-pyrazolo[3,4-d]pyrimidin-1-yl)pyridin-4-amine] | 8.22 | 37.2 | 5.93 | – |
| CNCCCc1cc(-c2cnc(-n3ncc4cc(C#N)cnc43)cc2NC(C)C)on1 [Example 414, 1-(4-(isopropylamino)-5-(3-(3-(methylamino)propyl)isoxazol-5-yl)pyridin-2-yl)-1H-pyrazolo[3,4-b]pyridine-5-carbonitrile] | 8.15 | < 1.5 | 6.60 | – |
| CC(C)Nc1cc(-n2ncc3cc(C#N)cnc32)ncc1-c1nnc(C(=O)N2CCOCC2)o1 [Example 433, 1-(4-(isopropylamino)-5-(5-(morpholine-4-carbonyl)-1,3,4-oxadiazol-2-yl)pyridin-2-yl)-1H-pyrazolo[3,4-b]pyridine-5-carbonitrile] | 7.96 | 1.7 | 6.70 | – |
| CCCn1cc(-c2cnc(-n3ncc4cc(C#N)cnc43)cc2NC(C)C)nn1 [Example 30, 1-(4-(isopropylamino)-5-(1-propyl-1H-1,2,3-triazol-4-yl)pyridin-2-yl)-1H-pyrazolo[3,4-b]pyridine-5-carbonitrile] | 8.40 | 22.5 | 6.80 | – |
| CC(C)Nc1cc(-n2ncc3cc(C#N)cnc32)ncc1-c1cn(CCC(C)(C)O)cn1 [Example 240, 1-(5-(1-(3-hydroxy-3-methylbutyl)-1H-imidazol-4-yl)-4-(isopropylamino)pyridin-2-yl)-1H-pyrazolo[3,4-b]pyridine-5-carbonitrile] | 8.52 | 5.7 | 6.13 | – |
| CC(C)(O)CCc1cn(-c2cnc(-n3ncc4cc(C#N)cnc43)cc2N[C@H]2CC[C@H](F)C2)nn1 [Example 368, 1-(4-(((1S,3S)-3-fluorocyclopentyl)amino)-5-(4-(3-hydroxy-3-methylbutyl)-1H-1,2,3-triazol-1-yl)pyridin-2-yl)-1H-pyrazolo[3,4-b]pyridine-5-carbonitrile] | 8.52 | 3.2 | 6.74 | – |
| CC(C)Nc1cc(-n2ncc3cc(C#N)cnc32)ncc1-n1cc(CC[C@](C)(O)CO)nn1 [Example 387, (S)-1-(5-(4-(3,4-dihydroxy-3-methylbutyl)-1H-1,2,3-triazol-1-yl)-4-(isopropylamino)pyridin-2-yl)-1H-pyrazolo[3,4-b]pyridine-5-carbonitrile] | 8.10 | < 1.5 | 6.62 | – |
| [2H]C([2H])([2H])C(=O)N1CC(n2cc(-c3cnc(-n4ncc5cc(C#N)cnc54)cc3NC(C)C)nn2)C1 [Example 140, 1-(5-(1-(1-trideuteroacetylazetidin-3-yl)-1H-1,2,3-triazol-4-yl)-4-(isopropylamino)pyridin-2-yl)-1H-pyrazolo[3,4-b]pyridine-5-carbonitrile] | 8.52 | < 1.5 | 6.44 | – |
